Reference: patent US20210255193A1, “LYSINE REACTIVE PROBES AND USES THEREOF” (The Scripps Research Institute, priority 2017, published 2021)

Experiments:
Assay in all cases: competitive isoTOP-ABPP
Type in all cases: binding
[1] = biological target: T1, NUDT2 Bis(5-nucleosyl)-tetraphosphatase (Homo sapiens, UniProt P50583); design: key to isoTOP-ABPP reactivity ratio at lysine P50583_K89: R = MS1 peak area ratio, DMSO (heavy) / compound-treated (light); details: 50 uM, in vitro; for isoTOP-ABPP ratio (R) at liganded lysine P50583_K89: sol, 231
T1 construct: isoTOP-ABPP experiments performed in cell lysates (in vitro); endogenous in cells
Protocol: (§1) In vitro covalent fragment treatment for isoTOP-ABPP. All compounds were made up as solutions in DMSO (100×) and were used at a final concentration of 50 μM for activated esters and 100 μM for guanidinylating agents. For each profiling sample, 0.5 ml of lysate was treated with 5 μl of the 100× compound stock solution or 5 μl of DMSO. Samples were treated with activated esters for
(§2) STP-alkyne labeling and click chemistry. For concentration-dependent reactivity measurements by isoTOP-ABPP, 0.5 ml proteome aliquots were treated at ambient temperature with 1 mM STP-alkyne 1 (5 μl of 100 mM stock in DMSO) and 0.1 mM STP alkyne 1 (5 μl of 10 mM stock in DMSO), respectively. For competitive isoTOP-ABPP, after in vitro fragment treatment (detailed above), the samples were labeled for 1 h at ambient temperature with 0.1 mM STP-alkyne 1 (5 μl of 10 mM stock in DMSO). Samples were conjugated by copper-mediated azide-alkyne cycloaddition (CuAAC) to either the light (1 mM STP-alkyne or fragment treated) or heavy (0.1 mM STP-alkyne or DMSO treated) TEV tags (10 μl of 5 mM stocks in DMSO, final concentration=100 μM) using tris(2-carboxyethyl)phosphine hydrochloride
(§3) R value calculation and processing. The ratios of light and heavy MS1 peaks for each unique peptide were quantified with a CIMAGE software using default parameters (3 MS1 acquisitions per peak and signal to noise threshold set to 2.5). For reactivity measurements by isoTOP-ABPP, the R value was calculated from the ratio of MS1 peak areas, comparing the 1 mM STP alkyne sample (light TEV tag) with the 0.1 mM STP alkyne sample (heavy TEV tag). For competitive isoTOP-ABPP, the R value was calculated from the ratio of MS1 peak areas, comparing the DMSO treated sample (heavy TEV tag) with the compound treated sample (light TEV tag). […] Ratios for unique peptide entries are calculated for each experiment; overlapping peptides with the same modified lysine (for example, different charge states, MudPIT chromatographic steps or tryptic termini) are grouped together and the median ratio is reported as the final ratio (R). The peptide ratios reported by CIMAGE were further filtered to ensure the removal or correction of low-quality ratios in each individual data set. The quality filters applied were the following: removal of half tryptic peptides; for ratios with high standard deviations from the median (90% of the median or above) the lowest ratio was taken instead of the median; removal of peptides with R=20 and only a single MS2 event triggered during the elution of the parent ion; manual annotation of all the peptides with ratios of 20, removing any peptides with low quality elution profiles that remained after the previous curation steps (only done for competitive isoTOP-ABPP).
(§4) Cross-data processing for fragment screening. For compound treated samples, biological replicates of the same condition were averaged, if the standard deviation was below 60% of the mean; otherwise, for lysines with at least one R value <4 for a particular compound, the lowest value of the ratio set was taken. For lysines, where all R values for a particular compound were ≥4, the average was reported. For peptides containing several possible modified lysines, the lysine with the highest number of quantification events was used for analysis and the remaining, redundant peptides were reported as alternative modification sites. Peptides included in the aggregate dataset (those used for further bioinformatics and statistical analyses) were required to have been quantified in 2 experiments for competitive isoTOP-ABPP. Lysines were categorized as liganded, if they had at least one ratio R≥4 (hit fragments). For liganded lysines with R=20 for all liganding events, lysines were required to have been quantified with R=20 in two separate experiments and were further required to have been quantified with R<20 in one additional experiment.

[2] = biological target: T2, TPMT Thiopurine S-methyltransferase (Homo sapiens, UniProt P51580); design: key to isoTOP-ABPP reactivity ratio at lysine P51580_K32: R = MS1 peak area ratio, DMSO (heavy) / compound-treated (light); details: 50 uM, in vitro; for isoTOP-ABPP ratio (R) at liganded lysine P51580_K32: sol, 231
T2 construct: isoTOP-ABPP experiments performed in cell lysates (in vitro); endogenous in cells; host or cells: soluble proteome of human cancer cell lines (MDA-MB-231; Ramos and Jurkat also prepared)
T2 sequence (P51580 1-245): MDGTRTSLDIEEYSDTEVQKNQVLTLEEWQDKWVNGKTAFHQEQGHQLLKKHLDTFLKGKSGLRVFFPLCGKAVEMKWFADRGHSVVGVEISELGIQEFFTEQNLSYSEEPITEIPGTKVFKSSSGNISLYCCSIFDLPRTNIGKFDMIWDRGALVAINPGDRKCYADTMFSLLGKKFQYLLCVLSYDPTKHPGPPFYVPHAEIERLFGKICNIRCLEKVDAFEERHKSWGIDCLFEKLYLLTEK
Protocol: as §1, §2, §3, §4

[3] = biological target: T3, ACBD3 Golgi resident protein GCP60 (Homo sapiens, UniProt Q9H3P7); design: key to isoTOP-ABPP reactivity ratio at lysine Q9H3P7_K117: R = MS1 peak area ratio, DMSO (heavy) / compound-treated (light); details: 50 uM, in vitro; for isoTOP-ABPP ratio (R) at liganded lysine Q9H3P7_K117: sol, 231
T3 construct: isoTOP-ABPP experiments performed in cell lysates (in vitro); endogenous in cells; host or cells: soluble proteome of human cancer cell lines (MDA-MB-231; Ramos and Jurkat also prepared)
T3 sequence (Q9H3P7 1-528): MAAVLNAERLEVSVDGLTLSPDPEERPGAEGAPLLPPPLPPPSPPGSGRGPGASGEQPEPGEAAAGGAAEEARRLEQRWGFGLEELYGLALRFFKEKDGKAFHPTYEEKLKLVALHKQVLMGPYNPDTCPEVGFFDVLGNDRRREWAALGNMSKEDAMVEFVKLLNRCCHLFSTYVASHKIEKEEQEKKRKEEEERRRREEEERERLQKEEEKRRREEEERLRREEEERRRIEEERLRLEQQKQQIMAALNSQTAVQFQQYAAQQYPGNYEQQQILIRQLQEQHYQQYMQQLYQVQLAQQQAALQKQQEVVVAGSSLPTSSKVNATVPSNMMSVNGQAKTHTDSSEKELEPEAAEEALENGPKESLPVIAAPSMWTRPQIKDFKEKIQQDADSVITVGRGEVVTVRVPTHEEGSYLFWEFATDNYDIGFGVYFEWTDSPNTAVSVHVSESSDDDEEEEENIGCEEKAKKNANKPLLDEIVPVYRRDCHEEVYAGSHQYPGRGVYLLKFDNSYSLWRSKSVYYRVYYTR
Protocol: as §1, §2, §3, §4

T1 sequence (P50583 whole entry): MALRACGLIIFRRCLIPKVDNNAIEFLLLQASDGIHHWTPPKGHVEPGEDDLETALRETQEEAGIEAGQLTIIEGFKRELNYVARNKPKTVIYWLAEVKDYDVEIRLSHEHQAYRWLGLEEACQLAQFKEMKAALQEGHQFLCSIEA

| Structure (SMILES) | isoTOP-ABPP reactivity ratio at lysine P50583_K89 ([1]; 231 sol) | isoTOP-ABPP reactivity ratio at lysine P51580_K32 ([2]; 231 sol) | isoTOP-ABPP reactivity ratio at lysine Q9H3P7_K117 ([3]; 231 sol) | other results |
| --- | --- | --- | --- | --- |
| O=C(Oc1ccc([N+](=O)[O-])cc1[N+](=O)[O-])C(c1ccccc1)c1ccccc1 [fragment 30, 2,4-Dinitrophenyl 2,2-diphenylacetate] | 1.1 | 1.5 | 1.7 |  |
| O=C(Oc1ccc([N+](=O)[O-])cc1[N+](=O)[O-])c1cc(C(F)(F)F)cc(C(F)(F)F)c1 [fragment 31, 2,4-Dinitrophenyl 3,5-bis(trifluoromethyl)benzoate] | 0.8 | 2.5 | 1.1 |  |
| O=C(CN1C(=O)c2ccccc2C1=O)Oc1c(F)c(F)c(F)c(F)c1F [fragment 27, Pentafluorophenyl 2-(1,3-dioxoisoindolin-2-yl)acetate] | 0.7 | 1.3 | 1.9 |  |
| CC(=O)Oc1ccc([N+](=O)[O-])cc1[N+](=O)[O-] [fragment 43, 2,4-Dinitrophenyl acetate] |  |  |  | isoTOP-ABPP ratio (R) at liganded lysine P50583_K89 [1]: 1.1; isoTOP-ABPP ratio (R) at liganded lysine P51580_K32 [2]: 1.5; isoTOP-ABPP ratio (R) at liganded lysine Q9H3P7_K117 [3]: 1.2 |
| O=C(Oc1ccc([N+](=O)[O-])cc1[N+](=O)[O-])C(c1ccccc1)(c1ccccc1)c1ccccc1 [fragment 42, 2,4-Dinitrophenyl 2,2,2-triphenylacetate] |  |  |  | isoTOP-ABPP ratio (R) at liganded lysine P50583_K89 [1]: 1.0; isoTOP-ABPP ratio (R) at liganded lysine P51580_K32 [2]: 0.9; isoTOP-ABPP ratio (R) at liganded lysine Q9H3P7_K117 [3]: 1.0 |
| O=C(Oc1c(F)c(F)c(F)c(F)c1F)c1cc(C(F)(F)F)cc(C(F)(F)F)c1 [fragment 21, Pentafluorophenyl 3,5-bis(trifluoromethyl)benzoate] |  |  |  | R value (DMSO/fragment) for probe 1 labeling ([1]; P50583_K89, 231 sol): 0.9; R value (DMSO/fragment) for probe 1 labeling ([2]; P51580_K32, 231 sol): 4.9; R value (DMSO/fragment) for probe 1 labeling ([3]; Q9H3P7_K117, 231 sol): 0.9 |
| Cn1cc(CC(=O)Oc2ccc([N+](=O)[O-])cc2[N+](=O)[O-])c2ccccc21 [fragment 32, 2,4-Dinitrophenyl 2-(1-methyl-1H-indol-3-yl)acetate] | 3.7 | 2.5 | 1.3 |  |
| O=C(CCc1cn(-c2ccccc2)nc1-c1ccccc1)Oc1ccc([N+](=O)[O-])cc1[N+](=O)[O-] [fragment 29, 2,4-Dinitrophenyl 3-(1,3-diphenyl-1H-pyrazol-4-yl)propanoate] | 1.0 | 1.4 | 1.0 |  |
| O=C(Oc1c(F)c(F)c(F)c(F)c1F)C1CCN(C(=O)OCc2ccccc2)CC1 [fragment 24, 1-Benzyl 4-(pentafluorophenyl) piperidine-1,4-dicarboxylate] | 0.9 | 1.0 | 1.0 |  |
